Experimental data taken from ChEMBL document CHEMBL5252588, “Palladium-Catalyzed Synthesis, Acetylcholinesterase Inhibition, and Neuroprotective Activities of N-Aryl Galantamine Analogues” (J Nat Prod, 2023).
Calls of active or inactive are those of the source. The rule behind the calls is not given here.

These molecules were tested on SH-SY5Y (assay: Neuroprotective activity against H2O2-induced injury in human SH-SY5Y cells assessed as decrease in caspase-3 protein expression at 50 uM preincubated with compound for 24 hrs followed by H2O2-addition and measured after 4 hrs by immunoblot analysis). Settings: time 28.0 hrs.
Format: functional, cell-based
For COc1ccnc(N2CC[C@@]34C=C[C@H](O)C[C@@H]3Oc3c(OC)ccc(c34)C2)c1, the Activity was “inactive”.

The molecules below were run on SH-SY5Y (assay: Neuroprotective activity against H2O2-induced injury in human SH-SY5Y cells assessed as inhibition of H2O2-induced apoptosis at 50 uM preincubated with compound for 24 hrs followed by H2O2-addition and measured after 4 hrs by TUNEL staining based analysis). Settings: time 28.0 hrs.
Format: functional, cell-based
For COc1ccnc(N2CC[C@@]34C=C[C@H](O)C[C@@H]3Oc3c(OC)ccc(c34)C2)c1, the Activity was “Active”.

What follows are molecules tested against Cholinesterase (Equus caballus) (UniProt P81908) (assay: Inhibition of equine serum BChE using butyrylthiocholine iodide as substrate at 50 to 100 uM preincubated for 20 mins followed by substrate addition and measured after 20 mins by Ellman's method). Settings: dose 50-100 µM, time 40.0 min.
Sequence of Cholinesterase (Equus caballus) (P81908 whole entry): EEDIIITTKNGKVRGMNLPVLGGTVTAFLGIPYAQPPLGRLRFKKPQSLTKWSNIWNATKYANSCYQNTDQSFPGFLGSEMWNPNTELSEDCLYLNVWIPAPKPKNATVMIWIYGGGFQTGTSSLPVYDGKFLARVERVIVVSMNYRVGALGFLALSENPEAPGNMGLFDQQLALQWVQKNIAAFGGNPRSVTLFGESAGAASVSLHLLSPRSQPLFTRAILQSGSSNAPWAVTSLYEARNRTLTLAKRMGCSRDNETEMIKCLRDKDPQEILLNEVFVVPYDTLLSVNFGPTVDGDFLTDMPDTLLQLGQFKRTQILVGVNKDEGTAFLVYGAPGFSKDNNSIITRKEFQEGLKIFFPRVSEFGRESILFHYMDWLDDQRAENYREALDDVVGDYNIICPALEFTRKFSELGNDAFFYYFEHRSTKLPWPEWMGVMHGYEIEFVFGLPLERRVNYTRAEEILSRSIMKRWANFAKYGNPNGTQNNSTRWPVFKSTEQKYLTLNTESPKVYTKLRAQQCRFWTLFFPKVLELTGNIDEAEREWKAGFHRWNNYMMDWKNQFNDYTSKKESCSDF
In the case of COc1ccc2c3c1O[C@H]1C[C@@H](O)C=C[C@@]31CCN(c1ccc3ncccc3c1)C2, the inhibition is reported as “inactive”. COc1ccc(N2CC[C@@]34C=C[C@H](O)C[C@@H]3Oc3c(OC)ccc(c34)C2)cc1 was tested, and the inhibition was “inactive”. For COc1ccc2c3c1O[C@H]1C[C@@H](O)C=C[C@@]31CCN(c1cccc(C(F)(F)F)c1)C2, the inhibition was “inactive”. With COc1ccc2c3c1O[C@H]1C[C@@H](O)C=C[C@@]31CCN(c1cc(C)ccn1)C2 the inhibition was “inactive”. With COc1ccc2c3c1O[C@H]1C[C@@H](O)C=C[C@@]31CCN(c1ccc(F)cc1)C2 the inhibition was “inactive”. In the case of COc1ccc2c3c1O[C@H]1C[C@@H](O)C=C[C@@]31CCN(c1ncccc1F)C2, the inhibition is reported as “inactive”. In the case of COc1ccnc(N2CC[C@@]34C=C[C@H](O)C[C@@H]3Oc3c(OC)ccc(c34)C2)c1, the inhibition is reported as “inactive”. COc1ccc2c3c1O[C@H]1C[C@@H](O)C=C[C@@]31CCN(c1ccc(OC(C)C)nc1)C2 was tested, and the inhibition was “inactive”. In the case of CCOc1ccc(N2CC[C@@]34C=C[C@H](O)C[C@@H]3Oc3c(OC)ccc(c34)C2)nc1, the inhibition is reported as “inactive”. For COc1cccc(N2CC[C@@]34C=C[C@H](O)C[C@@H]3Oc3c(OC)ccc(c34)C2)c1, the inhibition was “inactive”. With COc1ccc2c3c1O[C@H]1C[C@@H](O)C=C[C@@]31CCN(c1ccc(C)cc1)C2 the inhibition was “inactive”. With CCc1ccc(-c2ccc(N3CC[C@@]45C=C[C@H](O)C[C@@H]4Oc4c(OC)ccc(c45)C3)cc2)cc1 the inhibition was “inactive”. COc1cccc(N2CC[C@@]34C=C[C@H](O)C[C@@H]3Oc3c(OC)ccc(c34)C2)n1 was tested, and the inhibition was “inactive”. For COc1ccc2c3c1O[C@H]1C[C@@H](O)C=C[C@@]31CCN(c1ccc(-c3ccccn3)cc1)C2, the inhibition was “inactive”. With COc1ccc2c3c1O[C@H]1C[C@@H](O)C=C[C@@]31CCN(c1ccccn1)C2 the inhibition was “inactive”. In the case of COc1ccc2c3c1O[C@H]1C[C@@H](O)C=C[C@@]31CCN(c1ccc(C(F)(F)F)nc1)C2, the inhibition is reported as “inactive”. In the case of COc1ccc2c3c1O[C@H]1C[C@@H](O)C=C[C@@]31CCN(c1ncccn1)C2, the inhibition is reported as “inactive”. In the case of COc1ccc2c3c1O[C@H]1C[C@@H](O)C=C[C@@]31CCN(c1cccc(C)n1)C2, the inhibition is reported as “inactive”. COc1cccnc1N1CC[C@@]23C=C[C@H](O)C[C@@H]2Oc2c(OC)ccc(c23)C1 was tested, and the inhibition was “inactive”. COc1ccc2c3c1O[C@H]1C[C@@H](O)C=C[C@@]31CCN(c1ccc3c(c1)OCO3)C2 was tested, and the inhibition was “inactive”. For COc1ccc2c3c1O[C@H]1C[C@@H](O)C=C[C@@]31CCN(c1ccc(C(C)(C)C)cc1)C2, the inhibition was “inactive”. COc1ccc2c3c1O[C@H]1C[C@@H](O)C=C[C@@]31CCN(c1ncccc1C)C2 was tested, and the inhibition was “inactive”. In the case of COc1ccc2c3c1O[C@H]1C[C@@H](O)C=C[C@@]31CCN(c1cc(C(F)(F)F)cc(C(F)(F)F)c1)C2, the inhibition is reported as “inactive”. CCCCc1ccc(N2CC[C@@]34C=C[C@H](O)C[C@@H]3Oc3c(OC)ccc(c34)C2)cc1 was tested, and the inhibition was “inactive”.

What follows are molecules tested on SH-SY5Y (assay: Neuroprotective activity against H2O2-induced injury in human SH-SY5Y cells assessed as decrease in cleaved caspase-3 at 50 uM preincubated with compound for 24 hrs followed by H2O2-addition and measured after 4 hrs by immunoblot analysis). Settings: time 28.0 hrs.
Format: functional, cell-based
COc1ccnc(N2CC[C@@]34C=C[C@H](O)C[C@@H]3Oc3c(OC)ccc(c34)C2)c1 was tested, and the Activity was “Active”.

Each molecule was assayed against Acetylcholinesterase (Electrophorus electricus, UniProt O42275) (assay: Inhibition of electric eel AChE using acetylthiocholine iodide as substrate preincubated with compounds for 20 mins followed by substrate addition and measured after 20 mins by Ellman's method relative to control). Settings: not given.
Sequence of Acetylcholinesterase (O42275 whole entry): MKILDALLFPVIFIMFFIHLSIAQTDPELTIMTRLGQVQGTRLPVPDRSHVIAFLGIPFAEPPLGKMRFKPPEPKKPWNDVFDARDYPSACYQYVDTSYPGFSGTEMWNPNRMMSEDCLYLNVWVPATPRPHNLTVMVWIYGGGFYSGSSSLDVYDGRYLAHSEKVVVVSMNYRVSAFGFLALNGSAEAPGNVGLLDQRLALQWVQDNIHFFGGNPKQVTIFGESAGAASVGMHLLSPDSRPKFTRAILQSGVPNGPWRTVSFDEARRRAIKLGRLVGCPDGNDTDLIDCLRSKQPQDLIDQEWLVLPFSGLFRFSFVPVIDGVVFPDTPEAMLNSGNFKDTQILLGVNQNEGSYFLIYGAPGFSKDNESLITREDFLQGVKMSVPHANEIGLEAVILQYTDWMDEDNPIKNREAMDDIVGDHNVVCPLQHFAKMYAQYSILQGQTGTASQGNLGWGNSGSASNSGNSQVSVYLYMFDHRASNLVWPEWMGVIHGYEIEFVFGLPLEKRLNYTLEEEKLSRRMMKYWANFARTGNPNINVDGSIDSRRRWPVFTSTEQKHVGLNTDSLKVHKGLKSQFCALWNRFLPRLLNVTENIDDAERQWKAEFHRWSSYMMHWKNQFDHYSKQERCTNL
COc1ccnc(N2CC[C@@]34C=C[C@H](O)C[C@@H]3Oc3c(OC)ccc(c34)C2)c1 was tested, and the IC50 was 0.19 µM. COc1ccc2c3c1O[C@H]1C[C@@H](O)C=C[C@@]31CCN(c1ccccn1)C2 was tested, and the IC50 was 3.6 µM. Work on COc1ccc2c3c1O[C@H]1C[C@@H](O)C=C[C@@]31CCN(c1cccc(C)n1)C2 yielded an IC50 of 17 µM. Molecule COc1cccnc1N1CC[C@@]23C=C[C@H](O)C[C@@H]2Oc2c(OC)ccc(c23)C1 has an IC50 of 27 µM. For COc1ccc2c3c1O[C@H]1C[C@@H](O)C=C[C@@]31CCN(c1ncccc1C)C2, the IC50 was 1.7 µM.

The molecules below were run against Acetylcholinesterase (Electrophorus electricus) (UniProt O42275) (assay: Inhibition of electric eel AChE using acetylthiocholine iodide as substrate at 50 uM preincubated with compounds for 20 mins followed by substrate addition and measured after 20 mins by Ellman's method relative to control). Settings: time 40.0 min.
Sequence of Acetylcholinesterase (Electrophorus electricus) (O42275 24-633 limits assumed): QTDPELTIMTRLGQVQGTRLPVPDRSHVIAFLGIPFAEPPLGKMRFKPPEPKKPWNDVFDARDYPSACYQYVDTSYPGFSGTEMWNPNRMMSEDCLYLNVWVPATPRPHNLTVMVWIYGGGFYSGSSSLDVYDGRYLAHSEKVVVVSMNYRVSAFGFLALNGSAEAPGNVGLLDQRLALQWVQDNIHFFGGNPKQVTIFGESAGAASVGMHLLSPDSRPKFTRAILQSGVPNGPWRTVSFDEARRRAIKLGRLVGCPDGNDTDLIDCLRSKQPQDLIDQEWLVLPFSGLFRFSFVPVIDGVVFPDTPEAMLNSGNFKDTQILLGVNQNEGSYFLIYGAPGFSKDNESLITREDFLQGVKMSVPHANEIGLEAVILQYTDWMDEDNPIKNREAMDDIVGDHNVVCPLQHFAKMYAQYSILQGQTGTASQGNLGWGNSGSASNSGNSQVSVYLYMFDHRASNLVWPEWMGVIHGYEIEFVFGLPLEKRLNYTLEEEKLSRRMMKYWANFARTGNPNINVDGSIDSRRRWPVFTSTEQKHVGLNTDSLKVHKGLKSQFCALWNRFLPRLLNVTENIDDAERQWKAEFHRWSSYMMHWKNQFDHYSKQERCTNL
For COc1ccnc(N2CC[C@@]34C=C[C@H](O)C[C@@H]3Oc3c(OC)ccc(c34)C2)c1, the inhibition was greater than 50%. COc1ccc2c3c1O[C@H]1C[C@@H](O)C=C[C@@]31CCN(c1ccccn1)C2 showed an inhibition greater than 50%. Work on COc1ccc2c3c1O[C@H]1C[C@@H](O)C=C[C@@]31CCN(c1cccc(C)n1)C2 yielded an inhibition greater than 50%. Molecule COc1cccnc1N1CC[C@@]23C=C[C@H](O)C[C@@H]2Oc2c(OC)ccc(c23)C1 has an inhibition greater than 50%. COc1ccc2c3c1O[C@H]1C[C@@H](O)C=C[C@@]31CCN(c1ncccc1C)C2 gave an inhibition greater than 50%.

Each molecule was assayed on SH-SY5Y (assay: Cytotoxicity against human SH-SY5Y cells assessed as reduction in cell viability). Settings: not given.
Format: toxicity, cell-based
In the case of COc1ccc2c3c1O[C@H]1C[C@@H](O)C=C[C@@]31CCN(c1ncccc1F)C2, the Activity is reported as “Toxic”. With COc1ccc2c3c1O[C@H]1C[C@@H](O)C=C[C@@]31CCN(c1ccc(C)cc1)C2 the Activity was “Toxic”. For CCc1ccc(-c2ccc(N3CC[C@@]45C=C[C@H](O)C[C@@H]4Oc4c(OC)ccc(c45)C3)cc2)cc1, the Activity was “Toxic”. In the case of COc1ccc2c3c1O[C@H]1C[C@@H](O)C=C[C@@]31CCN(c1ccc(-c3ccccn3)cc1)C2, the Activity is reported as “Toxic”. For COc1ccc2c3c1O[C@H]1C[C@@H](O)C=C[C@@]31CCN(c1ccc(C(C)(C)C)cc1)C2, the Activity was “Toxic”. COc1ccc2c3c1O[C@H]1C[C@@H](O)C=C[C@@]31CCN(c1cc(C(F)(F)F)cc(C(F)(F)F)c1)C2 was tested, and the Activity was “Toxic”. With CCCCc1ccc(N2CC[C@@]34C=C[C@H](O)C[C@@H]3Oc3c(OC)ccc(c34)C2)cc1 the Activity was “Toxic”.

These molecules were tested on SH-SY5Y (assay: Neuroprotective activity against H2O2-induced injury in human SH-SY5Y cells assessed as increase in Bcl-2 protein expression at 50 uM preincubated with compound for 24 hrs followed by H2O2-addition and measured after 4 hrs by immunoblot analysis). Settings: time 28.0 hrs.
Format: functional, cell-based
In the case of COc1ccnc(N2CC[C@@]34C=C[C@H](O)C[C@@H]3Oc3c(OC)ccc(c34)C2)c1, the Activity is reported as “Active”.

What follows are molecules tested against Acetylcholinesterase (Electrophorus electricus) (UniProt O42275) (assay: Inhibition of electric eel AChE using acetylthiocholine iodide as substrate at 50 to 100 uM preincubated with compounds for 20 mins followed by substrate addition and measured after 20 mins by Ellman's method relative to control). Settings: dose 50-100 µM, time 40.0 min.
COc1ccc2c3c1O[C@H]1C[C@@H](O)C=C[C@@]31CCN(c1ccc3ncccc3c1)C2 gave an inhibition of less than 50%. COc1ccc(N2CC[C@@]34C=C[C@H](O)C[C@@H]3Oc3c(OC)ccc(c34)C2)cc1 was tested, and the inhibition was less than 50%. In the case of COc1ccc2c3c1O[C@H]1C[C@@H](O)C=C[C@@]31CCN(c1cccc(C(F)(F)F)c1)C2, the inhibition is reported as less than 50%. Molecule COc1ccc2c3c1O[C@H]1C[C@@H](O)C=C[C@@]31CCN(c1ccc(F)cc1)C2 has an inhibition of less than 50%. COc1cccc(N2CC[C@@]34C=C[C@H](O)C[C@@H]3Oc3c(OC)ccc(c34)C2)c1 showed an inhibition of less than 50%. With COc1ccc2c3c1O[C@H]1C[C@@H](O)C=C[C@@]31CCN(c1ccc(C)cc1)C2 the inhibition was less than 50%. CCc1ccc(-c2ccc(N3CC[C@@]45C=C[C@H](O)C[C@@H]4Oc4c(OC)ccc(c45)C3)cc2)cc1 showed an inhibition of less than 50%. In the case of COc1ccc2c3c1O[C@H]1C[C@@H](O)C=C[C@@]31CCN(c1ccc(-c3ccccn3)cc1)C2, the inhibition is reported as less than 50%. COc1ccc2c3c1O[C@H]1C[C@@H](O)C=C[C@@]31CCN(c1ccc3c(c1)OCO3)C2 gave an inhibition of less than 50%. Work on COc1ccc2c3c1O[C@H]1C[C@@H](O)C=C[C@@]31CCN(c1ccc(C(C)(C)C)cc1)C2 yielded an inhibition of less than 50%. COc1ccc2c3c1O[C@H]1C[C@@H](O)C=C[C@@]31CCN(c1cc(C(F)(F)F)cc(C(F)(F)F)c1)C2 was tested, and the inhibition was less than 50%. Molecule CCCCc1ccc(N2CC[C@@]34C=C[C@H](O)C[C@@H]3Oc3c(OC)ccc(c34)C2)cc1 has an inhibition of less than 50%.

What follows are molecules tested on SH-SY5Y (assay: Neuroprotective activity against H2O2-induced injury in human SH-SY5Y cells assessed as […] in cell viability at 50 uM preincubated with compound for 24 hrs followed by H2O2-addition and measured after 4 hrs by MTT assay relative to control). Settings: time 28 hrs.
Format: functional
COc1ccc2c3c1O[C@H]1C[C@@H](O)C=C[C@@]31CCN(c1ccc3ncccc3c1)C2 showed an Activity of 56%. COc1ccc(N2CC[C@@]34C=C[C@H](O)C[C@@H]3Oc3c(OC)ccc(c34)C2)cc1 showed an Activity of 37%. COc1ccc2c3c1O[C@H]1C[C@@H](O)C=C[C@@]31CCN(c1cccc(C(F)(F)F)c1)C2 was tested, and the Activity was 53%. Molecule COc1ccc2c3c1O[C@H]1C[C@@H](O)C=C[C@@]31CCN(c1cc(C)ccn1)C2 has an Activity of 41%. In the case of COc1ccc2c3c1O[C@H]1C[C@@H](O)C=C[C@@]31CCN(c1ccc(F)cc1)C2, the Activity is reported as 39%. COc1ccnc(N2CC[C@@]34C=C[C@H](O)C[C@@H]3Oc3c(OC)ccc(c34)C2)c1 was tested, and the Activity was 70%. In the case of COc1ccc2c3c1O[C@H]1C[C@@H](O)C=C[C@@]31CCN(c1ccc(OC(C)C)nc1)C2, the Activity is reported as 42%. Molecule CCOc1ccc(N2CC[C@@]34C=C[C@H](O)C[C@@H]3Oc3c(OC)ccc(c34)C2)nc1 has an Activity of 41%. With COc1cccc(N2CC[C@@]34C=C[C@H](O)C[C@@H]3Oc3c(OC)ccc(c34)C2)c1 the Activity was 40%. Molecule COc1cccc(N2CC[C@@]34C=C[C@H](O)C[C@@H]3Oc3c(OC)ccc(c34)C2)n1 has an Activity of 66%. With COc1ccc2c3c1O[C@H]1C[C@@H](O)C=C[C@@]31CCN(C)C2 [GALANTAMINE] the Activity was 44%. With COc1ccc2c3c1O[C@H]1C[C@@H](O)C=C[C@@]31CCN(c1ccc(-c3ccccn3)cc1)C2 the Activity was 38%. COc1ccc2c3c1O[C@H]1C[C@@H](O)C=C[C@@]31CCN(c1ccccn1)C2 showed an Activity of 59%. COc1ccc2c3c1O[C@H]1C[C@@H](O)C=C[C@@]31CCN(c1ccc(C(F)(F)F)nc1)C2 gave an Activity of 63%. With COc1ccc2c3c1O[C@H]1C[C@@H](O)C=C[C@@]31CCN(c1ncccn1)C2 the Activity was 60%. For COc1ccc2c3c1O[C@H]1C[C@@H](O)C=C[C@@]31CCN(c1cccc(C)n1)C2, the Activity was 55%. COc1cccnc1N1CC[C@@]23C=C[C@H](O)C[C@@H]2Oc2c(OC)ccc(c23)C1 gave an Activity of 40%. Molecule COc1ccc2c3c1O[C@H]1C[C@@H](O)C=C[C@@]31CCN(c1ccc3c(c1)OCO3)C2 has an Activity of 39%. For COc1ccc2c3c1O[C@H]1C[C@@H](O)C=C[C@@]31CCN(c1ncccc1C)C2, the Activity was 37%.
